According to patent US11000033B2, “Ketone or oxime compound, and herbicide” (NISSAN CHEMICAL CORPORATION, priority 2014, dated 2021):

Tests used:
Assay type in all cases: in vivo
Digitaria ciliaris [1] = assay: Test Example 4: herbicidal effect by soil treatment (symbol F); details: application herbicide amount 320 g/ha
Summary of the method: (§1)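 Seeds were sown in sterilized diluvial soil, covered with about 1.5 cm of soil, and the soil surface was sprayed with a water-diluted emulsion of the compound at a predetermined rate. Plants grew in a greenhouse at 25° C. to 30° C.; effects were scored visually 3 weeks after application.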

Scirpus juncoides = assay: Test Example 1: herbicidal activity, application before weed generation in submerged conditions (symbol B); details: application herbicide amount 320 g/ha
Summary of the method: (§2)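 Weed control was rated three weeks after treatment on a 0–5 scale, from 5% or lower up to 90% or more. Pre-emergence water-surface application of diluted emulsion at a predetermined rate was made on the day of sowing, in flooded (4 cm water) pots containing rice seedlings, kept at 25–30 °C under glass.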

beet = assay: Test Example 4: effect on crop by soil treatment (symbol f); details: application herbicide amount 320 g/ha
Summary of the method: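 Soil-treatment setup: crop and weed seeds were spot-sown into sterilized diluvial soil, then buried beneath approximately 1.5 cm of it, and the boxes were housed in a 25–30° C. greenhouse.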

Leptochloa chinensis = assay: Test Example 3: herbicidal effect by foliage application, Wagner pot (symbol D); details: application herbicide amount 320 g/ha
Summary of the method: (§3)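 Seeds sown in alluvial soil kept under 0.1–0.5 cm water, greenhouse 25–30 °C; 14 d growth. Leaves treated by small sprayer with water-diluted emulsion at a predetermined rate. Effect graded by set scale, 3 weeks.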

Digitaria ciliaris [2] = assay: Test Example 5: herbicidal effect by foliage application, plastic box (symbol F); details: 320 g/ha, 3 weeks after application
Summary of the method: (§4)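 Greenhouse foliar test: seedlings at 14 days, grown 25° C. to 30° C. in sterilized diluvial soil; compound applied as an aqueous dilution of an emulsion; response read 3 weeks after spraying.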

Avena fatua = assay: Test Example 5: herbicidal effect by foliage application, plastic box (symbol I); details: 320 g/ha, 3 weeks after application
Summary of the method: as §4

Veronica persica = assay: Test Example 4: herbicidal effect by soil treatment (symbol R); details: application herbicide amount 320 g/ha
Summary of the method: as §1

Cyperus difformis = assay: Test Example 3: herbicidal effect by foliage application, Wagner pot (symbol E); details: application herbicide amount 320 g/ha
Summary of the method: as §3

Setaria viridis [3] = assay: Test Example 4: herbicidal effect by soil treatment (symbol G); details: application herbicide amount 320 g/ha
Summary of the method: as §1

Monochoria vaginalis = assay: Test Example 2: herbicidal activity, application during weed generation in submerged conditions (symbol C); details: Table 23; application herbicide amount 320 g/ha; grade 0-5 by criteria of Test Example 1
Summary of the method: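 Each pot contained alluvial soil under 4 cm of water with seeds of all three weeds sown together. Following growth at 25° C. to 30° C. to the one- to two-leaf stage, the floodwater received diluted emulsion at a predetermined amount; visual assessment followed at 3 weeks.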

Setaria viridis [4] = assay: Test Example 5: herbicidal effect by foliage application, plastic box (symbol G); details: 320 g/ha, 3 weeks after application
Summary of the method: as §4

[5] = tested on: Echinochloa crus-galli var. crus-galli; assay: Test Example 4: herbicidal effect by soil treatment (symbol H); details: application herbicide amount 320 g/ha
Summary of the method: as §1

Stellaria media = assay: Test Example 5: herbicidal effect by foliage application, plastic box (symbol P); details: 320 g/ha, 3 weeks after application
Summary of the method: as §4

[6] = tested on: Echinochloa oryzacola Vasing.; assay: Test Example 1: herbicidal activity, application before weed generation in submerged conditions (symbol A); details: application herbicide amount 320 g/ha
Summary of the method: as §2

| Structure (SMILES) | Herbicidal effect grade, F: Digitaria ciliaris (Digitaria ciliaris [1]) | Herbicidal effect grade, B: Scirpus juncoides (Scirpus juncoides) | Effect on crop grade, f: beet (beet) | herbicidal effect on D (Leptochloa chinensis), grade 0-5 (Leptochloa chinensis) | F: Digitaria ciliaris, herbicidal effect (criteria of Test Example 1) (Digitaria ciliaris [2]) | I: Avena fatua, herbicidal effect (criteria of Test Example 1) (Avena fatua) | Herbicidal effect grade, R: Veronica persica (Veronica persica) | herbicidal effect on E, grade 0-5 (Cyperus difformis) | Herbicidal effect grade, G: Setaria viridis (Setaria viridis [3]) | Herbicidal effect grade, C: Monochoria vaginalis (Monochoria vaginalis) | G: Setaria viridis, herbicidal effect (criteria of Test Example 1) (Setaria viridis [4]) | Herbicidal effect grade, H: Echinochloa crus-galli var. crus-galli [5] | P: Stellaria media, herbicidal effect (criteria of Test Example 1) (Stellaria media) | Herbicidal effect grade, A: Echinochloa oryzacola Vasing. [6] |
| --- | --- | --- | --- | --- | --- | --- | --- | --- | --- | --- | --- | --- | --- | --- |
| CC#Cc1cc(C)c(C2=C(O)CC(CC(C)=O)C2=O)c(C)c1 (stereo not drawn) [7-010] | 5 (Herbicidal ratio of 90% or more (almost completely withered)) | 5 (Herbicidal ratio of 90% or more (almost completely withered)) | 0 (Herbicidal ratio of 5% or lower (almost no effect)) | 5 (Herbicidal ratio of 90% or more (almost completely withered)) | 5 (Herbicidal ratio of 90% or more (almost completely withered)) | 4 (Herbicidal ratio of 70% or higher and lower than 90%) | 3 (Herbicidal ratio of 40% or higher and lower than 70%) | 5 (Herbicidal ratio of 90% or more (almost completely withered)) | 5 (Herbicidal ratio of 90% or more (almost completely withered)) | 1 (Herbicidal ratio of 5% or higher and lower than 20%) | 5 (Herbicidal ratio of 90% or more (almost completely withered)) | 5 (Herbicidal ratio of 90% or more (almost completely withered)) | 0 (Herbicidal ratio of 5% or lower (almost no effect)) | 5 (Herbicidal ratio of 90% or more (almost completely withered)) |
| CC(=O)CC1CC(O)=C(c2c(C)cc(C)cc2Br)C1=O (stereo not drawn) [7-011] | 5 (Herbicidal ratio of 90% or more (almost completely withered)) | 1 (Herbicidal ratio of 5% or higher and lower than 20%) | 0 (Herbicidal ratio of 5% or lower (almost no effect)) | 4 (Herbicidal ratio of 70% or higher and lower than 90%) | 4 (Herbicidal ratio of 70% or higher and lower than 90%) | 3 (Herbicidal ratio of 40% or higher and lower than 70%) | 0 (Herbicidal ratio of 5% or lower (almost no effect)) | 5 (Herbicidal ratio of 90% or more (almost completely withered)) | 0 (Herbicidal ratio of 5% or lower (almost no effect)) | 0 (Herbicidal ratio of 5% or lower (almost no effect)) | 3 (Herbicidal ratio of 40% or higher and lower than 70%) | 4 (Herbicidal ratio of 70% or higher and lower than 90%) | 3 (Herbicidal ratio of 40% or higher and lower than 70%) | 2 (Herbicidal ratio of 20% or higher and lower than 40%) |
| CC(=O)CC1CC(O)=C(c2c(C)cc(-c3ccccn3)cc2C)C1=O (stereo not drawn) [7-012] | 5 (Herbicidal ratio of 90% or more (almost completely withered)) | 0 (Herbicidal ratio of 5% or lower (almost no effect)) | 0 (Herbicidal ratio of 5% or lower (almost no effect)) | 5 (Herbicidal ratio of 90% or more (almost completely withered)) | 5 (Herbicidal ratio of 90% or more (almost completely withered)) | 1 (Herbicidal ratio of 5% or higher and lower than 20%) | 0 (Herbicidal ratio of 5% or lower (almost no effect)) | 4 (Herbicidal ratio of 70% or higher and lower than 90%) | 5 (Herbicidal ratio of 90% or more (almost completely withered)) | 0 (Herbicidal ratio of 5% or lower (almost no effect)) | 5 (Herbicidal ratio of 90% or more (almost completely withered)) | 5 (Herbicidal ratio of 90% or more (almost completely withered)) | 3 (Herbicidal ratio of 40% or higher and lower than 70%) | 3 (Herbicidal ratio of 40% or higher and lower than 70%) |
| CC(=O)CC1CC(O)=C(c2c(C)cc(OCC(F)(F)F)cc2C)C1=O (stereo not drawn) [7-015] | 5 (Herbicidal ratio of 90% or more (almost completely withered)) | 1 (Herbicidal ratio of 5% or higher and lower than 20%) | 0 (Herbicidal ratio of 5% or lower (almost no effect)) | 5 (Herbicidal ratio of 90% or more (almost completely withered)) | 5 (Herbicidal ratio of 90% or more (almost completely withered)) | 5 (Herbicidal ratio of 90% or more (almost completely withered)) | 0 (Herbicidal ratio of 5% or lower (almost no effect)) | 5 (Herbicidal ratio of 90% or more (almost completely withered)) | 5 (Herbicidal ratio of 90% or more (almost completely withered)) | 0 (Herbicidal ratio of 5% or lower (almost no effect)) | 5 (Herbicidal ratio of 90% or more (almost completely withered)) | 5 (Herbicidal ratio of 90% or more (almost completely withered)) | 1 (Herbicidal ratio of 5% or higher and lower than 20%) | 5 (Herbicidal ratio of 90% or more (almost completely withered)) |
| CC(=O)CC1CC(O)=C(c2c(C)cc(OCc3ccccc3)cc2C)C1=O (stereo not drawn) [7-018] | 3 (Herbicidal ratio of 40% or higher and lower than 70%) | 0 (Herbicidal ratio of 5% or lower (almost no effect)) | 0 (Herbicidal ratio of 5% or lower (almost no effect)) | 5 (Herbicidal ratio of 90% or more (almost completely withered)) | 5 (Herbicidal ratio of 90% or more (almost completely withered)) | 0 (Herbicidal ratio of 5% or lower (almost no effect)) | 0 (Herbicidal ratio of 5% or lower (almost no effect)) | 3 (Herbicidal ratio of 40% or higher and lower than 70%) | 1 (Herbicidal ratio of 5% or higher and lower than 20%) | 0 (Herbicidal ratio of 5% or lower (almost no effect)) | 4 (Herbicidal ratio of 70% or higher and lower than 90%) | 0 (Herbicidal ratio of 5% or lower (almost no effect)) | 0 (Herbicidal ratio of 5% or lower (almost no effect)) | 2 (Herbicidal ratio of 20% or higher and lower than 40%) |
| COc1cc(C)c(C2=C(O)CC(CC(C)=O)C2=O)c(C)c1 (stereo not drawn) [7-020] | 3 (Herbicidal ratio of 40% or higher and lower than 70%) | 0 (Herbicidal ratio of 5% or lower (almost no effect)) | 0 (Herbicidal ratio of 5% or lower (almost no effect)) | 5 (Herbicidal ratio of 90% or more (almost completely withered)) | 5 (Herbicidal ratio of 90% or more (almost completely withered)) | 0 (Herbicidal ratio of 5% or lower (almost no effect)) | 0 (Herbicidal ratio of 5% or lower (almost no effect)) | 3 (Herbicidal ratio of 40% or higher and lower than 70%) | 2 (Herbicidal ratio of 20% or higher and lower than 40%) | 0 (Herbicidal ratio of 5% or lower (almost no effect)) | 3 (Herbicidal ratio of 40% or higher and lower than 70%) | 0 (Herbicidal ratio of 5% or lower (almost no effect)) | 0 (Herbicidal ratio of 5% or lower (almost no effect)) | 2 (Herbicidal ratio of 20% or higher and lower than 40%) |
